Measured values: US20220192984A1, “PHARMACEUTICAL COMPOSITIONS COMPRISING OTIC THERAPEUTIC AGENTS AND RELATED METHODS” (Frequency Therapeutics, Inc., priority 2018, published 2022)
Values joined by “and” are separate entries in the source; they are usually repeats but may differ in a detail not shown here. Equal entries are not always repeated.

Assays:
[1] = Stability of the non-lyophilized test composition under refrigeration (Example 13); assay type: physicochemical; settings: freshly compounded test composition, refrigerator, 0 to 120 hours
[2] = Perilymph Conc. listed for agents (Tables 14-25)
Lgr5+ cells = assay: Lgr5+ Assay (Lgr5+ cell assay in vitro); assay type: cell-based
[3] = assay type: physicochemical; settings: lyophilized composition (Dosage 1) stored at 5° C., room temperature or 40° C. under 75% relative humidity in the dark
Method: Stability Analysis: The stability of the lyophilized composition formulation (Dosage 1) was analyzed upon storage at 5° C., room temperature, or 40° C. under 75% relative humidity in the dark Samples were taken at various time points, reconstituted as described in Example 4 and samples analyzed by HPLC. […] About 100% of sodium valproate remained.
Long-term stability of the lyophilized composition formulation (Dosage 1) was tested. The composition was held at room temperature (ambient) in the dark for two months and reconstituted as described in Example 4 below.

[4] = Stability of the reconstituted test composition in refrigerated syringes (Example 13); assay type: physicochemical; settings: for time assay levels remained stable with initial levels: reconstituted test composition in polypropylene syringes, refrigerated
[5] = Reconstitution time of lyophilized compositions (Tables E, 28, 35); assay type: physicochemical
Method: Diluent 1, 0.85 mL+lyophilized cake. […] Gentle tapping on the exterior of the vessel to help the cake dissolve in the Diluent may be required while keeping it in fridge (or ice bath). To avoid degradation of the composition, minimize stirring and/or vortexing.
Diluent 1, 0.95 mL+Placebo cake: Using a syringe, add the Diluent to the Placebo cake, and rest in a fridge or ice bath (2-8° C.) for 60 minutes or until clear solution is formed. Gentle tapping on the exterior of the vessel to help the cake dissolve in the Diluent may be required while keeping it in fridge (or ice bath). To avoid degradation of the composition, minimize stirring and/or vortexing.
Powder P407 (i.e. non-lyophilized) can be obtained from BASF.
Reconstitution of lyophilized P407 (Placebo) and powder P407 was done using 850 μL Diluent (see above for example preparations of a Diluent) in a vial.
Therefore, to probe the effect of salts other than sodium valproate on reconstitution time, a poloxamer solution at 16.15% concentration either alone or including a salt (e.g. an inorganic salt or organic acid salt) at a concentration of 533.25 mM, was lyophilized. The lyophilized material was then reconstituted using Diluent for reconstitution (6.4% DMSO by wt. % in water) or with water.
Building on the results of Examples 14 to 16, further lyophilized compositions were manufactured and had their reconstitution times evaluated. […] The further lyophilized compositions were made in accordance with Example 10, and reconstituted in accordance with Example 12.

HDAC = settings: Mechanism HDAC Inhib 1, 2, 3, 8; cited from earlier work
[6] = Storage stability of the lyophilized test composition (Table 27); assay type: physicochemical
Method: The lyophilized composition was stored in a glass container with rubber closure and crimp seal under refrigeration for 6 months and at −20° C. for 24 months.

[7] = Stability of the filtered solution prior to lyophilization by HPLC (Example 2); assay type: physicochemical; settings: room temperature
Method: Stability Analysis: Prior to lyophilization, the stability of the filtered solution was analyzed by HPLC. The solution was held at room temperature for 4 hours, and samples of the solution was analyzed by HPLC during the period of time. […] Further, about 100% of sodium valproate remained in the solution.

[8] = Stability of reconstituted higher concentration formulation at 2-8° C. for 8 hours (Table D); assay type: physicochemical; settings: Post Lyo
GSK-3 beta = GSK-3 beta (Homo sapiens, UniProt P49841); settings: cited from earlier work
Sequence of GSK-3 beta (P49841 whole entry): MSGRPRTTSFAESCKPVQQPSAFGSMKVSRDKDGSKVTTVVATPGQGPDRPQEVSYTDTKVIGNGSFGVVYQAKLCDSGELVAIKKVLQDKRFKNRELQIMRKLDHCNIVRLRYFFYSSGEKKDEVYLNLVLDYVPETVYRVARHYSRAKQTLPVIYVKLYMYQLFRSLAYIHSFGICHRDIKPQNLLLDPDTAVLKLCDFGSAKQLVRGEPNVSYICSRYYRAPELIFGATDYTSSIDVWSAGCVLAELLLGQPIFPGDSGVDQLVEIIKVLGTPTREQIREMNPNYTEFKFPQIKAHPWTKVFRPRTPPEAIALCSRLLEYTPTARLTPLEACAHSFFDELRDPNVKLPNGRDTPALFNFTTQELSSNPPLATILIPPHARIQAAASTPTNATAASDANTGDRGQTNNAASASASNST

GSK-3 alpha = GSK-3 alpha (Homo sapiens, UniProt P49840); settings: cited from earlier work
Sequence of GSK-3 alpha (P49840 whole entry, canonical isoform): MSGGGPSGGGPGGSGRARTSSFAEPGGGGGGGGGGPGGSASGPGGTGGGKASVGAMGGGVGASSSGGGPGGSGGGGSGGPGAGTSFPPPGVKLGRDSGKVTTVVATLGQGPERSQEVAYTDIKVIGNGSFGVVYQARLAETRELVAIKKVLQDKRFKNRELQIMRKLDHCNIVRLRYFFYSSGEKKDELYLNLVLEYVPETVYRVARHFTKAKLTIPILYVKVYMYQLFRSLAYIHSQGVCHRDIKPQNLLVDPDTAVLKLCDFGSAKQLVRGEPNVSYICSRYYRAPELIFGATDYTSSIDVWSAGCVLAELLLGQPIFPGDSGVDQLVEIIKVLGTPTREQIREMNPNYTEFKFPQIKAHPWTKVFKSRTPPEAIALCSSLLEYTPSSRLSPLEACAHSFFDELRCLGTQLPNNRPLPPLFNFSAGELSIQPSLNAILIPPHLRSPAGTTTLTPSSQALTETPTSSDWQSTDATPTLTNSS

MAOs A and B = settings: Table 18, one value, isoform not told; read-out: Select MAOs A and B; cited from earlier work
[9] = Table 18; cited from earlier work
[10] = Order of compounding of the test composition (Example 11, Table 26); assay type: physicochemical; settings: organic solvents
Method: The first step in the sequence of compounding was to add pre-weighed solid sodium valproate to the stock P407 aqueous solution over ice. The temperature of P407 solution is important to keep the viscosity of this thermoreversible polymer in a liquid free-flowing state. After a clear solution was obtained, the CHIR99021-DMSO stock solution was added slowly to the NaVPA-P407-water solution. […] CHIR99021 also begins to degrade after extended periods of time in solution.

LSD1 = LSD1 (Homo sapiens, UniProt O60341); settings: Table 18; read-out: Literat. Cell EC50; cited from earlier work
KDM1b = molecular target: T1, KDM1b (Homo sapiens, UniProt Q8NB78); settings: Table 18; read-out: Select KDM1b; cited from earlier work
T1 sequence (Q8NB78 1-822): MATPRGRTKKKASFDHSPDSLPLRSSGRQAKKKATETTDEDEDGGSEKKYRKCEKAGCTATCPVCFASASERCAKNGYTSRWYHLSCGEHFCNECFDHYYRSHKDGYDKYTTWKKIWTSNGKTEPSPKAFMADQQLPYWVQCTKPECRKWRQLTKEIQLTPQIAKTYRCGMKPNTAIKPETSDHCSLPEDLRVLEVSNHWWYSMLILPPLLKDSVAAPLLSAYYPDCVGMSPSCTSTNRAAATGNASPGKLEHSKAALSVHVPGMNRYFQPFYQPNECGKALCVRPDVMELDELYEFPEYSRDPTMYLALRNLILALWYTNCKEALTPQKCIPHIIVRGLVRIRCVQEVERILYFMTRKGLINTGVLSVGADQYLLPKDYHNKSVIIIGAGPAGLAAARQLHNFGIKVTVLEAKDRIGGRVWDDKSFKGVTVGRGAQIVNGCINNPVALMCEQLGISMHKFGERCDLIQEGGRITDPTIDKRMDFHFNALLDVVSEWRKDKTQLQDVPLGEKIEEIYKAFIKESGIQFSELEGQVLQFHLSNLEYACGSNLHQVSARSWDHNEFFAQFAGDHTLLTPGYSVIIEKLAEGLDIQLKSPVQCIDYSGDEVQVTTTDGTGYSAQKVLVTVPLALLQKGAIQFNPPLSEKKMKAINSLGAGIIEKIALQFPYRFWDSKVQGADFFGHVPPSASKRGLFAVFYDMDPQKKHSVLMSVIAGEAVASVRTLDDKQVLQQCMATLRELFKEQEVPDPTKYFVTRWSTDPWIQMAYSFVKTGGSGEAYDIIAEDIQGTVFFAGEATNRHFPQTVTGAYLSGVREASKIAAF

ErbB3/HER3 = ErbB3/HER3 (Homo sapiens, UniProt P21860); settings: read-out: HER 3 pKi or IC50 (converted); cited from earlier work
Sequence of ErbB3/HER3 (P21860 20-1342): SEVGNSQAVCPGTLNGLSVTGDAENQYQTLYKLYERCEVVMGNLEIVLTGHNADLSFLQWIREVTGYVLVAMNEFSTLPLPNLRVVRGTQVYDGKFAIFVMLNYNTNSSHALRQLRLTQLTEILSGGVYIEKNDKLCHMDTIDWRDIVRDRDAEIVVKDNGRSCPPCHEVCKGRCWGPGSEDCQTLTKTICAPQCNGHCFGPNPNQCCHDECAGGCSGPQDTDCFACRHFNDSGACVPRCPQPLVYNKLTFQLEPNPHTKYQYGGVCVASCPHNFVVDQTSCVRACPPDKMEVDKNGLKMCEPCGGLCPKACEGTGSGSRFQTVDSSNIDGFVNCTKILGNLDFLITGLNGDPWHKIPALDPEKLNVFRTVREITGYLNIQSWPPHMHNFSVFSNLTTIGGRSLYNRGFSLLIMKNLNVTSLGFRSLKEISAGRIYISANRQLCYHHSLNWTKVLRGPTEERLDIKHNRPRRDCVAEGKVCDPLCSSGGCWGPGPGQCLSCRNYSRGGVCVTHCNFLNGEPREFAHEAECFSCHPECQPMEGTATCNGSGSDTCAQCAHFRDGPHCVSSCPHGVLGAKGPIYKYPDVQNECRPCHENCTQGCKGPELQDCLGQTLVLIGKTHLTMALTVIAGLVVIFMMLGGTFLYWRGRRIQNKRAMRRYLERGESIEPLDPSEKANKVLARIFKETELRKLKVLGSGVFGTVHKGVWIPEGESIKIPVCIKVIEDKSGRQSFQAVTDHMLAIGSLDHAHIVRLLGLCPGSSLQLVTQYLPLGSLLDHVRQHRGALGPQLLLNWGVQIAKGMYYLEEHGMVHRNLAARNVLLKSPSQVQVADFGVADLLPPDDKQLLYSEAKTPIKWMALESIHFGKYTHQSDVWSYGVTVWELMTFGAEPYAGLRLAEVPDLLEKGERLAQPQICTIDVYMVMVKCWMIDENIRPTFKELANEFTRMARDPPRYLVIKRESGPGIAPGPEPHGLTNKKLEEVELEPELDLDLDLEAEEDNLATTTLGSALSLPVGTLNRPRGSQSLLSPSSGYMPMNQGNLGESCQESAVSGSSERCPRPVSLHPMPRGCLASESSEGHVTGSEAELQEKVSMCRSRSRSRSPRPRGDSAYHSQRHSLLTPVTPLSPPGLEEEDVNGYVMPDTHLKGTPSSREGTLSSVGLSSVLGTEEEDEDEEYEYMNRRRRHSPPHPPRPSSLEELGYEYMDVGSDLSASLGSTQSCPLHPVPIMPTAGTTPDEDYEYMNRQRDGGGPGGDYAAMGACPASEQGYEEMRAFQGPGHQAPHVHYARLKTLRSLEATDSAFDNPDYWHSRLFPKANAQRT

HER4 = HER4 (Homo sapiens, UniProt Q15303); settings: cited from earlier work
Sequence of HER4 (Q15303 26-1308, species assumed): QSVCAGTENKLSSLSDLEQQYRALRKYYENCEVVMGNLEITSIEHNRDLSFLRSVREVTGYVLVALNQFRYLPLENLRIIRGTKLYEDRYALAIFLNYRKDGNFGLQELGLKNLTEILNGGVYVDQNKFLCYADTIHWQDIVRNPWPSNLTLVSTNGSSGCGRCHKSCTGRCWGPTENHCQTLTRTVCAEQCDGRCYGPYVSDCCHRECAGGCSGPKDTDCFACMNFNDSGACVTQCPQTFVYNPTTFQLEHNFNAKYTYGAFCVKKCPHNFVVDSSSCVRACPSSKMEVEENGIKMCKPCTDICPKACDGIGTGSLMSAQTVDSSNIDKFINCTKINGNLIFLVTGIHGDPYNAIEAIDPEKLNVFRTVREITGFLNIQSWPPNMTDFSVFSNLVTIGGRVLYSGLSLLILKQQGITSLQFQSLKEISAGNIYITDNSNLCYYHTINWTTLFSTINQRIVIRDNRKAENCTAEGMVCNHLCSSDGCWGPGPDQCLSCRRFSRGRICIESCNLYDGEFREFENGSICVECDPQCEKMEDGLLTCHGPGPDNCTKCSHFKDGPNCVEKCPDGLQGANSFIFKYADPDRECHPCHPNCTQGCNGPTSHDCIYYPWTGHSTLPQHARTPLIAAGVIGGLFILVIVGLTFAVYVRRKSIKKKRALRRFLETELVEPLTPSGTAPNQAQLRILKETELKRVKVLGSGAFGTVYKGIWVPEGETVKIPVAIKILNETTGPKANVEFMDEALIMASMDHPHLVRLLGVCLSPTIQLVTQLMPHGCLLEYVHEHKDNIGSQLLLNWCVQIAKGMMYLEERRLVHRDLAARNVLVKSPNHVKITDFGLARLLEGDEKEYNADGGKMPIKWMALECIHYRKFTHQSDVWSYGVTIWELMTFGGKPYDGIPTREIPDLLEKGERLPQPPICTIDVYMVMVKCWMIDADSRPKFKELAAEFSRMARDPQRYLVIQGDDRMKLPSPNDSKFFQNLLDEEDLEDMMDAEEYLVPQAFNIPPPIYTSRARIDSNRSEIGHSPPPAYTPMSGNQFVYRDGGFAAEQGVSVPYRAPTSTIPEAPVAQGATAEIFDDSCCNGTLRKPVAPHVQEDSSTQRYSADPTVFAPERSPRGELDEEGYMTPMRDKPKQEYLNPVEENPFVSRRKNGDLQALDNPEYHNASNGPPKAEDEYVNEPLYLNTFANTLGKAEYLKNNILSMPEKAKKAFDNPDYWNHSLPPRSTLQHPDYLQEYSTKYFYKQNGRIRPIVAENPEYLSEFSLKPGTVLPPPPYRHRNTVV

[11] = lyophilized composition GMP lot B17030018, Refrigerated, 1 month
[12] = lyophilized composition GMP lot B17030018, Refrigerated, 2 months
[13] = lyophilized composition GMP lot B17030018, Refrigerated, 3 months
[14] = lyophilized composition GMP lot B17030018, Refrigerated, 6 months
[15] = lyophilized composition GMP lot B17030018, Release, 0 month
[16] = lyophilized composition GMP lot B17030018, −20, 1 month
[17] = lyophilized composition GMP lot B17030018, −20, 2 months
[18] = lyophilized composition GMP lot B17030018, −20, 3 months
[19] = lyophilized composition GMP lot B17030018, −20, 6 months
[20] = lyophilized composition GMP lot B17030018, −20, 9 months
[21] = lyophilized composition GMP lot B17030018, −20, 12 months
[22] = lyophilized composition GMP lot B17030018, −20, 18 months
[23] = lyophilized composition GMP lot B17030018, −20, 24 months
[24] = Table 14, listed concentration, no test described

CCCC(CCC)C(=O)O [Sodium Valproate, Sodium 2-propylpentanoate]
assay level over time [1]: remained constant over this time | Perilymph Conc ([2]; HDAC inhibitor table, upper end of the wrapped range 100 uM-4 mM, no test described): ≤ 4000 µM | Lgr5+ Assay (Lgr5+ cells; HDAC inhibitor table, upper end of the wrapped range 100 uM-4 mM): ≤ 4 mM | sodium valproate remained [3]: About 100% | time assay levels remained stable with initial levels [4]: 6 h | assay level ([4]; reconstituted test composition in refrigerated syringes, up to 24 hours): remained constant over this time | Reconstitution time (minutes) water + DMSO ([5]; lyophilized 16.15% P407 with salt at 533.25 mM, reconstituted with Diluent ([…] DMSO in water)): 25 min | Reconstitution time (minutes) with water ([5]; lyophilized 16.15% P407 with salt at 533.25 mM, reconstituted with water): 20 min | reconstitution time of lyophilized poloxamer with added organic acid salt ([5]; poloxamer 16.15%, salt 533.25 mM): 420 min | HDAC Potenc (HDAC): 39 to 161 µM | Assay (drug content) [6, 11]: 100% | Assay (drug content) [6, 12]: 100% | Assay (drug content) [6, 13]: 100% | Assay (drug content) [6, 14]: 99% | Assay (drug content) [6, 15]: 100% | Assay (drug content) [6, 16]: 101% | Assay (drug content) [6, 17]: 100% | Assay (drug content) [6, 18]: 100% | Assay (drug content) [6, 19]: 100% | Assay (drug content) [6, 20]: 99% | Assay (drug content) [6, 21]: 99% | Assay (drug content) [6, 22]: 101% | Assay (drug content) [6, 23]: 98% | sodium valproate remained in the solution ([7]; 4 hours): about 100% | % Rel Error [8]: 7.3% and 5.5% | Conc. [8]: 102900 µg/mL and 101100 µg/mL | % Rel Error ([8]; 24 Hrs, refrigerator 2-8° C.): 5.3% and 7.5% | Conc. ([8]; 24 Hrs, refrigerator 2-8° C.): 101000 µg/mL and 103100 µg/mL

O=C1NC(=O)C(c2cnc3ccccn23)=C1c1cn2c3c(cc(F)cc13)CN(C(=O)N1CCCCC1)CC2 [LY2090314, 3-(9-fluoro-2-(piperidine-1-carbonyl)-1,2,3,4-tetrahydro-[1,4]diazepino[6,7,1-hi]indol-7-yl)-4-(imidazo[1,2-a]pyridin-3-yl)-1H-pyrrole-2,5-dione]
GSK-3 beta (GSK-3 beta): 0.9 nM | Perilymph Conc [2, 24]: 0.005 to 0.02 µM | Lgr5+ Assay (Lgr5+ cells; Table 14): 5e-06 to 2e-05 mM | GSK-3 alpha (GSK-3 alpha): 2.1 nM

N[C@@H]1C[C@H]1c1ccccc1 [TCP]
Perilymph Conc ([2]; Table 18, range or its upper end): 0.1 to 20 µM | Lgr5+ Assay (Lgr5+ cells; Table 18, concentration range or its upper end): 0.0001 to 0.02 mM | IC50 (MAOs A and B): 1000 nM | Human Plasma Conc Cmax [9]: 0.03 to 0.2 µg/mL

Cc1cnc(-c2cnc(NCCNc3ccc(C#N)cn3)nc2-c2ccc(Cl)cc2Cl)[nH]1 [CHIR99021]
assay level over time [1]: decreased from its initial level over time | solubility of CHIR99021 [10]: very limited in almost all organic solvents except polar solvents, such as DMSO | Perilymph Conc [2, 24]: 2 to 6 µM | time assay levels remained stable with initial levels [4]: 6 h | decrease of assay level from its initial level ([4]; reconstituted test composition in refrigerated syringes, sometime between 8 and 24 hours): 37% | Assay (drug content) [6, 11]: 105% | Assay (drug content) [6, 12]: 105% | Assay (drug content) [6, 13]: 104% | Assay (drug content) [6, 14]: 102% | Assay (drug content) [6, 15]: 103% | Assay (drug content) [6, 16]: 107% | Assay (drug content) [6, 17]: 107% | Assay (drug content) [6, 18]: 104% | Assay (drug content) [6, 19]: 103% | Assay (drug content) [6, 20]: 102% | Assay (drug content) [6, 21]: 99% | Assay (drug content) [6, 22]: 100% | Assay (drug content) [6, 23]: 100% | total impurities formed for CHIR99021 ([7]; over 4 hours): about 4.6% | % Rel Error [8]: 2.2% and 2.4% | Conc. [8]: 3470 µg/mL and 3480 µg/mL | % Rel Error ([8]; 24 Hrs, refrigerator 2-8° C.): −1.3% and 0.6% | Conc. ([8]; 24 Hrs, refrigerator 2-8° C.): 3360 µg/mL and 3420 µg/mL

O=C(O)c1ccc(CN2CCC(CN[C@@H]3C[C@H]3c3ccccc3)CC2)cc1 [GSK-2879552]
Perilymph Conc ([2]; Table 18, lower end of range): ≥ 40 nM- | Perilymph Conc ([2]; Table 18, upper end of range): ≤ 30 µM | Lgr5+ Assay (Lgr5+ cells; Table 18, lower end of concentration range): ≥ 40 nM- | EC50 (LSD1): 2 to 240 nM | Human Plasma Conc [9]: 1 to 100 nM | IC50 (KDM1b): 20000 nM

CN1CCN(Cc2ccc(NC(=O)Cc3ccc(Oc4cc(NC(=O)C5CC5)ncn4)cc3)cc2C(F)(F)F)CC1 [WS6]
IC50 (ErbB3/HER3): 280 nM

CNC(=O)CN1CCC(Oc2cc3c(Nc4cccc(Cl)c4F)ncnc3cc2OC)CC1 [Sapitinib/AZD8931/]
IC50 (HER4): 3 nM
